Among the data in ChEMBL document CHEMBL6115006, “Discovery of potent quinone oxidoreductase 2 inhibitors to overcome TRAIL resistance of non-small cell lung cancer” (Eur J Med Chem, 2025) are inhibition and IC50 values, retold here.

One assay deals with A549. The experiment in a line: cells. As to conditions: Homo sapiens, A549, 48 h, read-out: INH.
Assay [1] concerns the target T1, Ribosyldihydronicotinamide dehydrogenase [quinone] (Homo sapiens, UniProt P16083).
T1 sequence (P16083 whole entry): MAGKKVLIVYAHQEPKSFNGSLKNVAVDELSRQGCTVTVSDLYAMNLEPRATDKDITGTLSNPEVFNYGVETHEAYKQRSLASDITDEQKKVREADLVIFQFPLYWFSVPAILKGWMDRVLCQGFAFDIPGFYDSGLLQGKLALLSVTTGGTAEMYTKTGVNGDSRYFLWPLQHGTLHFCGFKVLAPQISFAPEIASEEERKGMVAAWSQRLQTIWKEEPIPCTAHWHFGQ
Description: Inhibition of recombinant human NQO2 using DCPIP and EPR as substrate measured over 1 min in presence of FAD by spectrophotometric analysis

Structures are written as SMILES.

As for `COc1cc(/C=C/c2ccc(N)cc2)cc(OC)c1OC`, the inhibition at 10 µM with A549 was determined as 14.7%.

In the case of `Oc1ccc(/C=C/c2cc(O)cc(O)c2)cc1` [RESVERATROL], the inhibition at 10 µM with A549 was found to be 15.4%.

A word on the IC50: it is the concentration at which inhibition is half-maximal. High values mean weaker potency in that assay, low ones greater potency in that assay. `COc1cc(-c2ccc3cc(N)ccc3c2)cc(OC)c1OC` had an IC50 in assay [1] of 69 nM. Besides, the inhibition at 10 µM with A549 worked out at 24.3%.
